This passage reports T/C results from PubChem BioAssay AID248 (DTP/NCI, 2004).

Values joined by “and” are separate entries in the source; they are usually repeats but may differ in a detail not shown here. Equal values may be shown once. Toxic doses and inconclusive results are not listed.

This test deals with L1210 leukemia ip in BDF1 mice, survival T/C. Nature of the test: NCI In Vivo Anticancer Drug Screen. Data for tumor model L1210 Leukemia (intraperitoneal) in B6D2F1 (BDF1) mice. The conditions noted are these: higher = longer survival. Put shortly:
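Transplanted-tumor mice were given test agent; controls received vehicle only. Survival readings from the two groups were divided (treated over control).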

[1] abbreviates: endpoint: mean survival time, dose: 200.0 mg/kg/injection, schedule: Q04DX003 (ip), vehicle: saline with Tween-80.
The mark [2] stands for this setting: endpoint: mean survival time, dose: 200.0 mg/kg/injection, schedule: Q01DX001 (ip), vehicle: saline with Tween-80.
[3] abbreviates: endpoint: mean survival time, dose: 100.0 mg/kg/injection, schedule: Q04DX003 (ip), vehicle: Klucel (hydroxypropylcellulose) (HPC).
[4] abbreviates: endpoint: mean survival time, dose: 200.0 mg/kg/injection, schedule: Q04DX003 (ip), vehicle: Klucel (hydroxypropylcellulose) (HPC).
Where [5] appears, read: endpoint: mean survival time, dose: 100.0 mg/kg/injection, schedule: Q01DX009 (ip), vehicle: Klucel (hydroxypropylcellulose) (HPC).
Setting [6] is: endpoint: mean survival time, dose: 200.0 mg/kg/injection, schedule: Q01DX009 (ip), vehicle: Klucel (hydroxypropylcellulose) (HPC).
The mark [7] stands for this setting: endpoint: mean survival time, dose: 400.0 mg/kg/injection, schedule: Q01DX009 (ip), vehicle: Klucel (hydroxypropylcellulose) (HPC).
The mark [8] stands for this setting: endpoint: mean survival time, dose: 400.0 mg/kg/injection, schedule: Q04DX003 (ip), vehicle: Klucel (hydroxypropylcellulose) (HPC).

For the molecule `CCC(C)N(C)/N=N/c1nc[nH]c1C(N)=O` (stereo not given), the T/C reads like this: (endpoint: mean survival time, dose: 11.0 mg/kg/injection, schedule: Q01DX009 (ip), vehicle: Klucel (hydroxypropylcellulose) (HPC)) 110 % of control; (endpoint: mean survival time, dose: 16.7 mg/kg/injection, schedule: Q01DX009 (ip), vehicle: Klucel (hydroxypropylcellulose) (HPC)) 123 % of control; (endpoint: mean survival time, dose: 16.8 mg/kg/injection, schedule: Q01DX009 (ip), vehicle: Klucel (hydroxypropylcellulose) (HPC)) 124 % of control; (endpoint: mean survival time, dose: 25.0 mg/kg/injection, schedule: Q01DX009 (ip), vehicle: Klucel (hydroxypropylcellulose) (HPC)) 124 % of control; (endpoint: mean survival time, dose: 25.0 mg/kg/injection, schedule: Q04DX003 (ip), vehicle: water) 121 % of control; (endpoint: mean survival time, dose: 38.0 mg/kg/injection, schedule: Q01DX009 (ip), vehicle: Klucel (hydroxypropylcellulose) (HPC)) 159 % of control. The T/C was 101 % of control (endpoint: mean survival time, dose: 50.0 mg/kg/injection, schedule: Q01DX001 (ip), vehicle: water); 154 % of control (endpoint: mean survival time, dose: 50.0 mg/kg/injection, schedule: Q01DX009 (ip), vehicle: water); 106 % of control (endpoint: mean survival time, dose: 50.0 mg/kg/injection, schedule: Q04DX003 (ip), vehicle: water); 159 % of control (endpoint: mean survival time, dose: 58.0 mg/kg/injection, schedule: Q01DX009 (ip), vehicle: Klucel (hydroxypropylcellulose) (HPC)); 150 % of control and 186 % of control (endpoint: mean survival time, dose: 88.0 mg/kg/injection, schedule: Q01DX009 (ip), vehicle: Klucel (hydroxypropylcellulose) (HPC)); 110 % of control (endpoint: mean survival time, dose: 100.0 mg/kg/injection, schedule: Q01DX001 (ip), vehicle: water). In addition, the T/C (endpoint: mean survival time, dose: 100.0 mg/kg/injection, schedule: Q01DX009 (ip), vehicle: water) was 120 % of control; the T/C (endpoint: mean survival time, dose: 100.0 mg/kg/injection, schedule: Q04DX003 (ip), vehicle: water) is 110 % of control; the T/C (endpoint: mean survival time, dose: 133.0 mg/kg/injection, schedule: Q01DX009 (ip), vehicle: Klucel (hydroxypropylcellulose) (HPC)) is 106 % of control; the T/C (endpoint: mean survival time, dose: 133.0 mg/kg/injection, schedule: Q04DX003 (ip), vehicle: saline with Tween-80) is 116 % of control and 124 % of control; the T/C (endpoint: mean survival time, dose: 200.0 mg/kg/injection, schedule: Q01DX001 (ip), vehicle: water) was 109 % of control; the T/C under setting [1] is 121 % of control. The T/C runs as follows: (endpoint: mean survival time, dose: 200.0 mg/kg/injection, schedule: Q04DX003 (ip), vehicle: water) 106 % of control; (endpoint: mean survival time, dose: 300.0 mg/kg/injection, schedule: Q04DX003 (ip), vehicle: saline with Tween-80) 157 % of control; (endpoint: mean survival time, dose: 400.0 mg/kg/injection, schedule: Q04DX003 (ip), vehicle: water) 94 % of control; (endpoint: median survival time, dose: 25.0 mg/kg/injection, schedule: Q01DX009 (ip), vehicle: Klucel (hydroxypropylcellulose) (HPC)) 115 % of control; (endpoint: median survival time, dose: 50.0 mg/kg/injection, schedule: Q01DX009 (ip), vehicle: Klucel (hydroxypropylcellulose) (HPC)) 155 % of control; (endpoint: median survival time, dose: 75.0 mg/kg/injection, schedule: Q01DX009 (ip), vehicle: Klucel (hydroxypropylcellulose) (HPC)) 155 % of control. Also, the T/C was 155 % of control (endpoint: median survival time, dose: 100.0 mg/kg/injection, schedule: Q01DX009 (ip), vehicle: Klucel (hydroxypropylcellulose) (HPC)); 110 % of control (endpoint: median survival time, dose: 100.0 mg/kg/injection, schedule: Q04DX003 (ip), vehicle: Klucel (hydroxypropylcellulose) (HPC)); 120 % of control (endpoint: median survival time, dose: 200.0 mg/kg/injection, schedule: Q04DX003 (ip), vehicle: Klucel (hydroxypropylcellulose) (HPC)); 120 % of control (endpoint: median survival time, dose: 300.0 mg/kg/injection, schedule: Q04DX003 (ip), vehicle: Klucel (hydroxypropylcellulose) (HPC)); 100 % of control (endpoint: median survival time, dose: 400.0 mg/kg/injection, schedule: Q04DX003 (ip), vehicle: Klucel (hydroxypropylcellulose) (HPC)).
Regarding `CCN(CC)CCCOP(=O)(N(CC)CC)N(CCCl)CCCl` (stereo not given), the T/C under setting [2] was 101 % of control.
Regarding `CCOC(=O)C1CC(=O)c2c1ccc1ccccc21` (stereo not given), the T/C is 105 % of control (endpoint: mean survival time, dose: 75.0 mg/kg/injection, schedule: Q01DX001 (ip), vehicle: other); 97 % of control (endpoint: mean survival time, dose: 150.0 mg/kg/injection, schedule: Q01DX001 (ip), vehicle: other); 96 % of control (endpoint: mean survival time, dose: 300.0 mg/kg/injection, schedule: Q01DX001 (ip), vehicle: other).
For `CC(C)=CCO`, the T/C was 96 % of control (endpoint: mean survival time, dose: 100.0 mg/kg/injection, schedule: Q01DX009 (ip), vehicle: saline); 93 % of control (endpoint: mean survival time, dose: 200.0 mg/kg/injection, schedule: Q01DX009 (ip), vehicle: saline); 88 % of control (endpoint: mean survival time, dose: 400.0 mg/kg/injection, schedule: Q01DX009 (ip), vehicle: saline).
In the case of `CC(C)(NC(=O)c1ccccc1)C(=O)O`, the T/C (endpoint: mean survival time, dose: 50.0 mg/kg/injection, schedule: Q04DX003 (ip), vehicle: Klucel (hydroxypropylcellulose) (HPC)) was 106 % of control; the T/C under setting [3] is 96 % of control; the T/C under setting [4] is 88 % of control.
Turning to `COc1cc(C(=O)NC(=S)Nc2ccc3ccccc3c2)cc(OC)c1OC`, the T/C (endpoint: mean survival time, dose: 100.0 mg/kg/injection, schedule: Q04DX002 (ip), vehicle: saline with Tween-80) was 91 % of control; the T/C (endpoint: mean survival time, dose: 200.0 mg/kg/injection, schedule: Q04DX002 (ip), vehicle: saline with Tween-80) is 97 % of control; the T/C (endpoint: mean survival time, dose: 400.0 mg/kg/injection, schedule: Q04DX002 (ip), vehicle: saline with Tween-80) is 91 % of control.
As to `O=C(O)CCSCCC(=O)O`, the T/C (endpoint: mean survival time, dose: 75.0 mg/kg/injection, schedule: Q01DX009 (ip), vehicle: Klucel (hydroxypropylcellulose) (HPC)) was 92 % of control; the T/C (endpoint: mean survival time, dose: 75.0 mg/kg/injection, schedule: Q04DX003 (ip), vehicle: saline) was 100 % of control; the T/C (endpoint: mean survival time, dose: 150.0 mg/kg/injection, schedule: Q01DX009 (ip), vehicle: Klucel (hydroxypropylcellulose) (HPC)) is 92 % of control; the T/C (endpoint: mean survival time, dose: 150.0 mg/kg/injection, schedule: Q04DX003 (ip), vehicle: saline) was 100 % of control; the T/C (endpoint: mean survival time, dose: 300.0 mg/kg/injection, schedule: Q01DX009 (ip), vehicle: Klucel (hydroxypropylcellulose) (HPC)) is 94 % of control; the T/C (endpoint: mean survival time, dose: 300.0 mg/kg/injection, schedule: Q04DX003 (ip), vehicle: saline) is 102 % of control.
Turning to `O=C(Nc1cc(S(=O)(=O)F)ccc1Cl)c1ccc2ccccc2c1O`, the T/C is, setting by setting: under setting [5], 97 % of control; under setting [3], 91 % of control; under setting [6], 101 % of control; under setting [4], 98 % of control; under setting [7], 95 % of control; under setting [8], 104 % of control.
As for `CN(C)CCCNC(=S)S`, the T/C (endpoint: mean survival time, dose: 6.0 mg/kg/injection, schedule: Q01DX009 (ip), vehicle: saline) was 106 % of control; the T/C (endpoint: mean survival time, dose: 12.0 mg/kg/injection, schedule: Q01DX009 (ip), vehicle: saline) was 100 % of control; the T/C (endpoint: mean survival time, dose: 25.0 mg/kg/injection, schedule: Q01DX009 (ip), vehicle: saline) is 111 % of control.
As to `COB(C1CCCCC1)C1CCCCC1`, the T/C under setting [3] was 91 % of control, the T/C under setting [4] is 98 % of control and the T/C under setting [8] was 100 % of control.
For `Cc1c2ccccc2cc2[n+]1CCc1ccccc1-2`, the T/C is, setting by setting: (endpoint: mean survival time, dose: 50.0 mg/kg/injection, schedule: Q04DX003 (ip), vehicle: saline with Tween-80) 100 % of control; (endpoint: mean survival time, dose: 100.0 mg/kg/injection, schedule: Q01DX001 (ip), vehicle: saline with Tween-80) 98 % of control; (endpoint: mean survival time, dose: 100.0 mg/kg/injection, schedule: Q04DX003 (ip), vehicle: saline with Tween-80) 105 % of control; under setting [2], 96 % of control; under setting [1], 107 % of control.
For `CN(C)S(=O)(=O)c1ccc(CCc2ccc(S(=O)(=O)N(C)C)cc2)cc1`, the T/C is, setting by setting: (endpoint: mean survival time, dose: 50.0 mg/kg/injection, schedule: Q01DX001 (ip), vehicle: saline) 93 % of control; (endpoint: mean survival time, dose: 100.0 mg/kg/injection, schedule: Q01DX001 (ip), vehicle: saline) 91 % of control; (endpoint: mean survival time, dose: 200.0 mg/kg/injection, schedule: Q01DX001 (ip), vehicle: saline) 91 % of control; (endpoint: mean survival time, dose: 400.0 mg/kg/injection, schedule: Q01DX001 (ip), vehicle: saline) 96 % of control.
In the case of `CC(C(OC(=O)Nc1ccc(Cl)c(Cl)c1)c1ccc(F)cc1)C(O)(C(F)(F)F)C(F)(F)F` (stereo not given), the T/C is, setting by setting: under setting [5], 93 % of control; under setting [6], 93 % of control; under setting [7], 91 % of control.
In the case of `CCC(O)c1ccc2ccccc2c1` (stereo not given), the T/C (endpoint: mean survival time, dose: 100.0 mg/kg/injection, schedule: Q01DX001 (ip), vehicle: carboxymethylcellulose (CMC)) was 98 % of control; the T/C (endpoint: mean survival time, dose: 200.0 mg/kg/injection, schedule: Q01DX001 (ip), vehicle: carboxymethylcellulose (CMC)) is 98 % of control; the T/C (endpoint: mean survival time, dose: 400.0 mg/kg/injection, schedule: Q01DX001 (ip), vehicle: carboxymethylcellulose (CMC)) is 93 % of control.
